Test results reported in the supplement of paper PMC10307832.

How the values were obtained:
Assay in all cases: relative viability (nuclei count vs DMSO), 5 days (fraction); higher = more cells survive
Tosedostat + Trametinib = compound: CC(C)C[C@@H](C(=O)N[C@H](C(=O)OC1CCCC1)c1ccccc1)[C@H](O)C(=O)NO [Tosedostat] + CC(=O)Nc1cccc(-n2c(=O)n(C3CC3)c(=O)c3c(Nc4ccc(I)cc4F)n(C)c(=O)c(C)c32)c1 [Trametinib] (partner 0.02 µM)
Method in brief: (§1)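 Medians of duplicate plates are given as relative viability. That measure is the nuclei count in treated wells divided by the count in vehicle wells. Counts were taken on 4× images of lung cancer cell lines in 1536-well plates, 5 days after pin-tool dosing the day after seeding with one drug alone or a fixed anchor-drug dose plus five library-drug doses (not always all listed) in √10 steps.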

[1] = compound: CC1=NN=C(O1)C2=NN=C(C=C2)N3CCC(CC3)OC4=C(C=CC(=C4)F)Cl + COc1cccc2cc(-c3nc([C@H]4CC[C@H](C(=O)O)CC4)n4ncnc(N)c34)[nH]c12 [OSI-027] (partner 0.5 µM)
Method in brief: as §1

[2] = compound: CC1=NN=C(O1)C2=NN=C(C=C2)N3CCC(CC3)OC4=C(C=CC(=C4)F)Cl + CS(=O)(=O)N1CCN(Cc2cc3nc(-c4cccc5[nH]ncc45)nc(N4CCOCC4)c3s2)CC1 [Pictilisib] (partner 1 µM)
Method in brief: as §1

Tosedostat + Dasatinib = compound: CC(C)C[C@@H](C(=O)N[C@H](C(=O)OC1CCCC1)c1ccccc1)[C@H](O)C(=O)NO [Tosedostat] + Cc1nc(Nc2ncc(C(=O)Nc3c(C)cccc3Cl)s2)cc(N2CCN(CCO)CC2)n1 [Dasatinib] (partner 0.075 µM)
Method in brief: as §1

With UMC-11 as the cell line, how does the relative viability (Tosedostat + Trametinib; first compound 0.02 µM) read?
The relative viability was 0.863.

And the relative viability (Tosedostat + Trametinib; first compound 0.06325 µM)?
Its relative viability is 0.681.

What about the relative viability (Tosedostat + Trametinib; first compound 0.2 µM) of the same cell line?
The relative viability was 0.663.

What about the relative viability (Tosedostat + Trametinib; first compound 0.6325 µM) of the same cell line?
The relative viability was 0.855.

And the relative viability (Tosedostat + Trametinib; first compound 2 µM)?
The relative viability was 0.664.

What about the relative viability ([1]; first compound 0.253 µM) of the same cell line?
The relative viability was 0.446.

And the relative viability ([1]; first compound 0.8 µM)?
Its relative viability is 0.482.

And the relative viability ([1]; first compound 2.53 µM)?
The relative viability was 0.529.

What about the relative viability ([1]; first compound 8 µM) of the same cell line?
Its relative viability is 0.565.

And the relative viability ([2]; first compound 0.253 µM)?
Its relative viability is 0.723.

And the relative viability ([2]; first compound 0.8 µM)?
Its relative viability is 0.65.

And the relative viability ([2]; first compound 2.53 µM)?
The relative viability was 0.797.

What about the relative viability ([2]; first compound 8 µM) of the same cell line?
The relative viability was 0.684.

And the relative viability (Tosedostat + Dasatinib; first compound 0.02 µM)?
Its relative viability is 0.499.

And the relative viability (Tosedostat + Dasatinib; first compound 0.06325 µM)?
Its relative viability is 0.454.

And the relative viability (Tosedostat + Dasatinib; first compound 0.2 µM)?
The relative viability was 0.453.

And the relative viability (Tosedostat + Dasatinib; first compound 0.6325 µM)?
The relative viability was 0.448.

And the relative viability (Tosedostat + Dasatinib; first compound 2 µM)?
The relative viability was 0.504.
